Assay results reported in patent US6509380B1, “Method of treating iron overload with acetaminophen” (Marshall University Research Corporation, priority 2001, dated 2003).

How the values were obtained:
[1] = tested on: iron-overloaded gerbils; assay: Iron-overload model in Mongolian gerbils (iron dextran ip), treatment with acetaminophen; assay type: in vivo, Mongolian gerbil
Description: Female Mongolian gerbils were divided into groups: positive iron control (iron injections given), iron-treated (injections of iron and acetaminophen), negative iron controls (no iron given), and treatment controls (injections of the investigational agent, only). Gerbils designated to receive iron were iron overloaded by a series of intraperitoneal (ip) injections of iron dextran during a two-month period of time. Treatments were initiated one month after completion of iron overloading and continued for one additional month.
Electrocardiograms (ECGs) were done on gerbils in all four groups, two months and again three months after completion of iron overloading. Gerbils were autopsied five months after completion of iron overloading and resulting stained tissue slides were evaluated by light microscopy. Livers and whole hearts were obtained from gerbils in control and iron-overloaded groups and weighed. Whole hearts and weighed liver samples were acid digested and measured for total iron content.

[2] = Toxicity of acetaminophen in iron overloaded animals versus animals with normal iron levels; assay type: in vivo; settings: multiple tests, no details given
Description: It was initially believed that acetaminophen would be more toxic in iron overloaded animals than in animals having normal iron levels.

**Q.** Which results are given for CC(=O)Nc1ccc(O)cc1 [acetaminophen]?
**A.** premature ventricular complexes (EKG findings) ([1]; ECGs two and three months after completion of iron overloading, four of 10 untreated iron-overloaded gerbils (40%) showed them): not in animals from the other three groups; iron-induced cardiac and hepatic hypertrophy (heart weights, heart/total body weight ratios, liver weights, liver/total body weight ratios) ([1]; autopsies, weight data and histological evaluations): effectively combats iron-induced cardiac and hepatic hypertrophy; reduction of cardiac iron (ICP-AES tissue iron measurement) ([1]; iron-overloaded female gerbils, versus untreated iron-overloaded animals, almost entirely from cardiomyocytes, less from cardiac macrophages, P<0.005): over 40%; reduction in liver iron (ICP-AES tissue iron measurement) ([1]; iron-overloaded female gerbils, versus untreated iron-overloaded animals, not statistically significant): 17%; accumulations of iron in the bone marrow, proximal renal tubules, heart and numerous other organs and tissues ([1]; stained tissue slides, light microscopy, less effect in the livers): greatly reduced accumulations of iron; deaths ([1]; within 5 months after iron overloading, eight of 20 untreated iron-overloaded gerbils died): No deaths; toxicity in animals having an iron overload compared with animals having normal iron levels [2]: less toxic in animals having an iron overload than in animals having normal iron levels
